Measurements: article PMC10600239, “Selective MCL-1 inhibitor ABBV-467 is efficacious in tumor models but is associated with cardiac troponin increases in patients” (Communications Medicine, 2023)

Test system: OCI-AML2 xenografts
Experiment: OCI-AML2 xenograft efficacy (tumor volume, body weight)
Conditions: for Tumor Volume Day 14, Mean / Tumor Volume Day 14, Median / % T/C (mean), Tumor Volume Day 14 / % T/C (median), Tumor Volume Day 14: Day 14 (measure date = dosing begin); for Tumor Volume Day 14, Mean / Tumor Volume Day 18, Mean / Tumor Volume Day 21, Mean: group mean of 8 mice; for Tumor Volume Day 14, Median / Tumor Volume Day 18, Median / Tumor Volume Day 21, Median: group median of 8 mice; for % T/C (mean), Tumor Volume Day 14 / % T/C (median), Tumor Volume Day 14 / % T/C (mean), Tumor Volume Day 18 / % T/C (median), Tumor Volume Day 18 / % T/C (mean), Tumor Volume Day 21 / % T/C (median), Tumor Volume Day 21: control Group 01; for % T/C (mean), Tumor Volume Day 25: mean(T)/mean(C) vs Group 01 (0 mg/kg); for % T/C (median), Tumor Volume Day 25: median(T)/median(C) vs Group 01 (0 mg/kg); for % Mortality: OCI-AML-2 (DSMZ) xenograft, SCID-beige mouse, F
[1] = ABBV-467 […] Q7Dx3 IV, Venetoclax 25 mg/kg QDx14 PO, 5-Aza 8 mg/kg Q7Dx3 IV
[2] = Venetoclax 25 mg/kg QDx14 PO, 5-Aza 8 mg/kg Q7Dx3 IV
[3] = group mean, n=8, ABBV-467 […] Q7Dx3 IV, Venetoclax 25 mg/kg QDx14 PO, 5-Aza 8 mg/kg Q7Dx3 IV
[4] = group median, n=8, ABBV-467 […] Q7Dx3 IV, Venetoclax 25 mg/kg QDx14 PO, 5-Aza 8 mg/kg Q7Dx3 IV

Description: All animal studies were conducted in accordance with the guidelines approved by the Institutional Animal Care and Use Committees of AbbVie. The research protocol was approved by In Vivo Pharmacology at AbbVie prior to study initiation but was not publicly registered or disclosed. Female C.B-17 SCID-beige mice (AMO-1, OPM-2, NCI-H929, and OCI-AML2 xenografts) and female NSG mice (MV4-11-Red.Fluc systemic) were purchased from Charles River Laboratories (Wilmington, MA). Animals were housed in a light cycle-controlled room with HEPA filtration at 22 °C. Animals had nesting and climbing cage topper as the primary environmental enrichment. Animals were inoculated subcutaneously in the right flank with 5 × 10^6 (AMO-1, OPM-2, NCI-H929, and OCI-AML2) or intravenous (IV) with 5 × 10^6 (MV4-11-Red.Fluc). The inoculation volume (0.2 mL) comprised a 50:50 mixture of cells in growth media and Matrigel (BD Biosciences) for subcutaneous injections and 100% phosphate-buffered saline for IV administration. […] Electronic calipers were used to measure the length and width of each tumor 2 to 3 times per week. Tumor volume was estimated by applying the following equation: volume = length × width^2/2. All groups remained blinded during measurements and dosing; only veterinary staff were aware of group identity. When tumors reached approximately 200 mm^3, mice were randomized by match and distributed into treatment and control groups. All xenograft trials were conducted using 5 to 10 mice per group, and all mice were ear tagged and monitored individually throughout the studies.
For combination studies, all compounds were administered within 30 min of each other.
The tumor growth delay (TGD) percentage was determined as the percentage increase of the median time period for the treatment group to reach an arbitrary tumor volume of 1000 mm^3 relative to the vehicle control group. […] A power analysis was conducted using historical data to determine the number of animals required to yield significance of 0.05 at a 30% difference. There were no animals excluded. Data from experiments in vivo were analyzed using the student’s t-test for TGI values and the Mann–Whitney U test for TGD using Excel and GraphPad Prism. Fisher’s exact test was used to probe significance of differences in response frequency.

Compound | Tumor Volume Day 14, Mean [1] | Tumor Volume Day 14, Median [1] | % T/C (mean), Tumor Volume Day 14 [1] | % T/C (median), Tumor Volume Day 14 [1] | Tumor Volume Day 18, Mean [1] | Tumor Volume Day 18, Median [1] | % T/C (mean), Tumor Volume Day 18 [1] | % T/C (median), Tumor Volume Day 18 [1] | Tumor Volume Day 21, Mean [1] | Tumor Volume Day 21, Median [1] | % T/C (mean), Tumor Volume Day 21 [1] | % T/C (median), Tumor Volume Day 21 [1] | Mortality Observation Day 25 (individual animals) [2] | Tumor Volume (mm³) Day 25, Mean [3] | Tumor Volume (mm³) Day 25, Median [4] | % T/C (mean), Tumor Volume Day 25 [1] | % T/C (median), Tumor Volume Day 25 [1] | also measured
Nc1ncn([C@@H]2O[C@H](CO)[C@@H](O)[C@H]2O)c(=O)n1 [5-azacitidine, reference compound] | – | – | – | – | – | – | – | – | – | – | – | – | – | – | – | – | – | effect on OCI-AML2 xenograft growth (venetoclax 25 mg/kg QD × 14, azacitidine 8 mg/kg Q7D × 3, or the combination of both): no meaningful effect
Nc1ncn([C@@H]2O[C@H](CO)[C@@H](O)[C@H]2O)c(=O)n1 [A-37426.0 (5-Aza)] | 204.71 mm³ | 196.98 mm³ | 99.83% | 103.17% | 420.77 mm³ | 428.51 mm³ | 80.49% | 74.19% | 806.97 mm³ | 777.56 mm³ | 88.35% | 78.44% | EUTV | 1474.66 mm³ | 1414.73 mm³ | 76.12% | 72.28% | % Mortality (Group 04, 8 mg/kg IV Q7Dx3): 100.00%
CC1(C)CCC(CN2CCN(c3ccc(C(=O)NS(=O)(=O)c4ccc(NCC5CCOCC5)c([N+](=O)[O-])c4)c(Oc4cnc5[nH]ccc5c4)c3)CC2)=C(c2ccc(Cl)cc2)C1 [A-1195425.0 (Venetoclax)] | 204.64 mm³ | 193.77 mm³ | 99.79% | 101.49% | 437.16 mm³ | 415.67 mm³ | 83.63% | 71.96% | 934.07 mm³ | 1005.20 mm³ | 102.27% | 101.40% | EUTV | 1624.63 mm³ | 1781.81 mm³ | 83.87% | 91.03% | % Mortality (Group 03, 25 mg/kg PO QDx14): 100.00%
Cc1c(Cl)c2c(Cl)c(C)c1-c1c(-c3ccc(F)cc3)sc3ncnc(c13)O[C@@H](C(=O)O)Cc1cc(ccc1OCc1ccnc(-c3ccc(OC[C@H]4COCCO4)cc3)n1)OC[C@@H](CN1CCN(C)CC1)O2 [A-1747745.0 (ABBV-467, MCL-1i)] | 205.07 mm³ | 194.10 mm³ | 100.01% | 101.66% | 319.69 mm³ | 302.00 mm³ | 61.16% | 52.29% | 701.23 mm³ | 681.22 mm³ | 76.77% | 68.72% | – | 978.87 mm³ | 1025.66 mm³ | 50.53% | 52.40% | Mortality Observation Day 28 (individual animals) (Day 28, ABBV-467 […] Q7Dx3 IV, Venetoclax 25 mg/kg QDx14 PO, 5-Aza 8 mg/kg Q7Dx3 IV): EUTV; Tumor Volume (mm³) Day 28, Mean (Day 28, group mean, n=8, ABBV-467 […] Q7Dx3 IV, Venetoclax 25 mg/kg QDx14 PO, 5-Aza 8 mg/kg Q7Dx3 IV): 1642.98 mm³; Tumor Volume (mm³) Day 28, Median (Day 28, group median, n=8, ABBV-467 […] Q7Dx3 IV, Venetoclax 25 mg/kg QDx14 PO, 5-Aza 8 mg/kg Q7Dx3 IV): 1495.57 mm³
